# Assay: Example 1: kidney biomarkers (urea nitrogen, creatinine, GFR) in short bowel syndrome patients, every four weeks for 24 weeks; also sorted by >5% change from baseline
# Type: in vivo, Human
# Parameters: CREATININE (RATE BLANKED) Change from Baseline Median / GFR Median / GFR Change from Baseline Median / UREA NITROGEN Median / UREA NITROGEN Change from Baseline Median: unit not given here
# Conditions: 0.05 mg/kg/day
# Procedure: Human patients with short bowel syndrome were divided into three groups: a control group (16 total individuals) to receive placebo, an experimental group (35 total individuals) to receive teduglutide at 0.05 mg/kg/day throughout the study, and an experimental group (32 total individuals) to receive teduglutide at 0.1 mg/kg/day throughout the study. Patients were treated by subcutaneous injection of placebo or the appropriate dose of teduglutide. As individuals with short bowel syndrome are likely to experience associated liver and kidney disease, known biomarkers of liver and kidney function were monitored every four weeks, for 24 weeks. The liver biomarkers tested included total bilirubin, ALT and AST and ALP. The kidney biomarkers tested included urea nitrogen, creatinine and GFR. Before administration of placebo or teduglutide, diagnostic biomarker levels were tested to establish a baseline for each individual.
# To visualize the effect of GLP-2 on the levels of the diagnostic biomarkers, the average change from baseline was calculated for the placebo and teduglutide treated groups for each visit after a baseline was established. The average change from baseline of each group is depicted in FIGS. 1-7. The numerical figures for each diagnostic biomarker at each time point are depicted in Table 1.
# The raw data for this sorting is reproduced in Table 2 below.
compound,measurement,setting,value
CC[C@H](C)[C@H](NC(=O)[C@H](Cc1ccccc1)NC(=O)[C@H](CC(=O)O)NC(=O)[C@H](CCCNC(=N)N)NC(=O)[C@H](C)NC(=O)[C@H](C)NC(=O)[C@H](CC(C)C)NC(=O)[C@H](CC(N)=O)NC(=O)[C@H](CC(=O)O)NC(=O)[C@H](CC(C)C)NC(=O)[C@@H](NC(=O)[C@@H](NC(=O)[C@H](CC(N)=O)NC(=O)[C@H](CCSC)NC(=O)[C@H](CCC(=O)O)NC(=O)[C@H](CC(=O)O)NC(=O)[C@H](CO)NC(=O)[C@H](Cc1ccccc1)NC(=O)[C@H](CO)NC(=O)CNC(=O)[C@H](CC(=O)O)NC(=O)CNC(=O)[C@@H](N)Cc1c[nH]cn1)[C@@H](C)O)[C@@H](C)CC)C(=O)N[C@@H](CC(N)=O)C(=O)N[C@@H](Cc1c[nH]c2ccccc12)C(=O)N[C@@H](CC(C)C)C(=O)N[C@H](C(=O)N[C@@H](CCC(N)=O)C(=O)N[C@H](C(=O)N[C@@H](CCCCN)C(=O)N[C@H](C(=O)N[C@H](C(=O)N[C@@H](CC(=O)O)C(=O)O)[C@@H](C)O)[C@@H](C)CC)[C@@H](C)O)[C@@H](C)CC [teduglutide],CREATININE (RATE BLANKED) Change from Baseline Median,DW4,1.5
same,CREATININE (RATE BLANKED) Median,DW4,80 µmol/L
same,GFR Change from Baseline Median,DW4,−0.6
same,GFR Median,DW4,77.0
same,UREA NITROGEN Change from Baseline Median,DW4,−0.4
same,UREA NITROGEN Median,DW4,4.9
same,CREATININE (RATE BLANKED) Change from Baseline Median,DW8,0.0
same,CREATININE (RATE BLANKED) Median,DW8,71 µmol/L
same,GFR Change from Baseline Median,DW8,1.1
same,UREA NITROGEN Change from Baseline Median,DW8,−0.3
same,UREA NITROGEN Median,DW8,5.2
same,CREATININE (RATE BLANKED) Change from Baseline Median,DW12,8.0
same,CREATININE (RATE BLANKED) Median,DW12,80 µmol/L
same,GFR Change from Baseline Median,DW12,−5.0
same,UREA NITROGEN Change from Baseline Median,DW12,−0.5
same,UREA NITROGEN Median,DW12,4.4
same,CREATININE (RATE BLANKED) Change from Baseline Median,DW16,0.0
same,CREATININE (RATE BLANKED) Median,DW16,79 µmol/L
same,GFR Change from Baseline Median,DW16,0.9
same,UREA NITROGEN Change from Baseline Median,DW16,−0.3
same,UREA NITROGEN Median,DW16,4.4
same,CREATININE (RATE BLANKED) Change from Baseline Median,DW20,0.0
same,GFR Change from Baseline Median,DW20,0.9
same,GFR Median,DW20,74.0
same,UREA NITROGEN Change from Baseline Median,DW20,−0.3
same,UREA NITROGEN Median,DW20,5.2
same,CREATININE (RATE BLANKED) Change from Baseline Median,DW 24,−0.5
same,CREATININE (RATE BLANKED) Median,DW 24,80 µmol/L
same,GFR Change from Baseline Median,DW 24,1.7
same,UREA NITROGEN Change from Baseline Median,DW 24,−0.7
same,UREA NITROGEN Median,DW 24,4.9
same,"CREATININE (RATE BLANKED) change from baseline <−5%, number of patients",week 4,7
same,"CREATININE (RATE BLANKED) change from baseline <−5%, percent of patients",week 4,(20.0%)
same,"CREATININE (RATE BLANKED) change from baseline >5%, number of patients",week 4,14
same,"CREATININE (RATE BLANKED) change from baseline >5%, percent of patients",week 4,(40.0%)
same,"CREATININE (RATE BLANKED) change from baseline −5% <= and <=5%, number of patients",week 4,9
same,"CREATININE (RATE BLANKED) change from baseline −5% <= and <=5%, percent of patients",week 4,(25.7%)
same,"GFR change from baseline <−5%, number of patients",week 4,13
same,"GFR change from baseline <−5%, percent of patients",week 4,(37.1%)
same,"GFR change from baseline >5%, number of patients",week 4,8
same,"GFR change from baseline >5%, percent of patients",week 4,(22.9%)
same,"GFR change from baseline −5% <= and <=5%, number of patients",week 4,9
same,"GFR change from baseline −5% <= and <=5%, percent of patients",week 4,(25.7%)
same,"UREA NITROGEN change from baseline <−5%, number of patients",week 4,16
same,"UREA NITROGEN change from baseline <−5%, percent of patients",week 4,(45.7%)
same,"UREA NITROGEN change from baseline >5%, number of patients",week 4,7
same,"UREA NITROGEN change from baseline >5%, percent of patients",week 4,(20.0%)
same,"UREA NITROGEN change from baseline −5% <= and <=5%, number of patients",week 4,7
same,"UREA NITROGEN change from baseline −5% <= and <=5%, percent of patients",week 4,(20.0%)
same,"CREATININE (RATE BLANKED) change from baseline <−5%, number of patients",week 8,11
same,"CREATININE (RATE BLANKED) change from baseline <−5%, percent of patients",week 8,(31.4%)
same,"CREATININE (RATE BLANKED) change from baseline >5%, number of patients",week 8,10
same,"CREATININE (RATE BLANKED) change from baseline >5%, percent of patients",week 8,(28.6%)
same,"CREATININE (RATE BLANKED) change from baseline −5% <= and <=5%, number of patients",week 8,8
same,"CREATININE (RATE BLANKED) change from baseline −5% <= and <=5%, percent of patients",week 8,(22.9%)
same,"GFR change from baseline <−5%, number of patients",week 8,9
same,"GFR change from baseline <−5%, percent of patients",week 8,(25.7%)
same,"GFR change from baseline >5%, number of patients",week 8,12
same,"GFR change from baseline >5%, percent of patients",week 8,(34.3%)
same,"GFR change from baseline −5% <= and <=5%, number of patients",week 8,7
same,"GFR change from baseline −5% <= and <=5%, percent of patients",week 8,(20.0%)
same,"UREA NITROGEN change from baseline <−5%, number of patients",week 8,14
same,"UREA NITROGEN change from baseline <−5%, percent of patients",week 8,(40.0%)
same,"UREA NITROGEN change from baseline >5%, number of patients",week 8,10
same,"UREA NITROGEN change from baseline >5%, percent of patients",week 8,(28.6%)
same,"UREA NITROGEN change from baseline −5% <= and <=5%, number of patients",week 8,5
same,"UREA NITROGEN change from baseline −5% <= and <=5%, percent of patients",week 8,(14.3%)
same,"CREATININE (RATE BLANKED) change from baseline <−5%, number of patients",week 12,7
same,"CREATININE (RATE BLANKED) change from baseline <−5%, percent of patients",week 12,(20.0%)

# Source: US20130157954A1, “METHODS FOR TREATMENT OR PROPHYLAXIS OF KIDNEY OR LIVER DYSFUNCTION” (NPS PHARMACEUTICALS, INC., priority 2010, published 2013)
